From patent US20120083464A1, “NEUROPROTECTIVE PROPERTIES OF 5'-METHYLTHIOADENOSINE” (priority 2009, published 2012)
“Also recorded” adds a separate entry of the source.

Experiments:
[1] = system: PC12 cells; test: Neurite differentiation assay in PC12 cells; assay type: cell-based, rat
Procedure: The PC12 cells were maintained in HAM's medium at 37° C., supplemented with 2.5% of fetal bovine serum, 15% of horse serum and penicillin/streptomycine. The neurite differentiation assays were conducted using 24-well plates treated with collagen in HAM's medium supplemented with 0.5% of fetal bovine serum and penicillin/streptomycine. NGF (100 ng/ml) or MTA at different concentrations (25 μM, 100 μM and 2 mM) were added to the cultures and, after four days, the percentage of cells with neurites longer than twice cell body. In each experiment a minimum of 300 cells were randomly counted.

[2] = system: oligodendrocytes derived from the optic nerve; test: Oligodendrocyte excitotoxicity with AMPA; assay type: cell-based, Sprague Dawley rats; settings: MTA 100-300 μM
Procedure: Primary cultures of oligodendrocytes derived from optic nerves of 12-d-old Sprague Dawley rats were obtained as described previously (Barres et al., 1992). Cells were seeded into 24-well plates bearing 12-mm-diameter coverslips coated with poly-D-lysine (10 μg/ml) at a density of 5×10^3 cells per well. Cells were maintained at 37° C. and 5% CO2 in a chemically defined medium (Barres et al., 1992, Cell 70:31-46). After 2-4 d in vitro, cultures were composed of at least 98% O4/galactocerebroside-positive (O4/Ga1C_) cells; the majority of the remaining cells were stained with antibodies to glial fibrillary acidic protein (GFAP). No A2B5+ or microglial cells were detected in these cultures (Alberdi et al., 2002, Neurobiol Dis 9:234-243).
Cell toxicity and viability assays were performed as described previously (Sánchez-Gómez and Matute, 1999, Neurobiol Dis 6:475-485). For evaluating the MTA toxicity, cells at 2-4 d in culture were exposed for 24 hours to that drug and cell viability assessed using calcein-AM (Invitrogen). […] Twenty-four hours after drug application, cell viability was assessed using calcein-AM (Invitrogen). The total number of surviving cells on each coverslip emitting calcein fluorescence was counted, and results were expressed as percentage of cell death versus control. Results were expressed as the mean±SEM of at least three independent experiments performed in duplicate. […]

For CSC[C@H]1O[C@@H](n2cnc3c(N)ncnc32)[C@H](O)[C@@H]1O [MTA, 5′-methylthioadenosine], the “neurite development at the highest concentration tested” value ([1]; MTA 5 mM) was “does not affect neurite development”, the “most optimal MTA concentration for formation of new neurites” value ([1]; four days) was 1 mM and the “neurite differentiation (formation of new processes)” value ([1]; four days, concentration dependent) was “develop new processes”. The “protection of oligodendrocytes from excitotoxic insult” value ([2]; AMPA 10 μM) was “robust protective activity; also recorded: protects” and the “protection of oligodendrocytes from excitotoxic insult” value ([2]; AMPA 100 μM (necrotic death)) was “no protection; also recorded: does not protect”.
